Legend:
db/db mice = experiment: Investigation with db/db mice (blood glucose and lipids); assay type: in vivo, mouse; settings: for Glucose Diff. D o − D 12 / HDL-cholesterol Diff. D o − D 12 / Total cholesterol Diff. D o − D 12 / Triglycerides Diff. D o − D 12: change day 0 to day 12; for Glucose D o / HDL-cholesterol D o / Total cholesterol D o / Triglycerides D o: day 0; for Glucose D 12 / HDL-cholesterol D 12 / Total cholesterol D 12 / Triglycerides D 12: day 12; for Glucose D-4 / HDL-cholesterol D-4 / Total cholesterol D-4 / Triglycerides D-4: day −4
Protocol: The following compounds are investigated and compared to placebo (vehicle control).
The mentioned 3 compounds are tested in db/db mice during a time when diabetes is in a rapid developing stage. […] Each dosage group and the vehicle group comprise 7 mice. The suspensions used are prepared with peroxide free arachis oil as vehicle. Blood samples are collected by retro-orbital bleeding at days −4, 0 and 12. The blood levels of glucose, triglycerides, total cholesterol, and HDL-cholesterol are determined.
For evaluation of efficacy, the difference between the values of glucose, triglycerides, total cholesterol and HDL-cholesterol changing from day 0 to day 12 is determined and expressed in %. […] Overall evaluation consists in determining the efficacy of the compounds by calculating the whole extent of the effect expressed in %. […] This value is considered as a valuable indicator for the efficacy of the investigated compounds administered in a tolerated dose.

skin of mice = experiment: Topical administration to the skin of mice (irritation); assay type: in vivo; settings: concentrations up to 2.5%
[1] = system: skin inflammation induced by topical 9-cis RA; experiment: Preventive and therapeutic effect on 9-cis RA-induced skin inflammation, human volunteer study; assay type: in vivo; settings: 9-cis RA 0.3% day 1 to day 14, then vehicle
Protocol: In this pilot clinical trial on one healthy volunteer, the substance 9-cis RA and compound 15 are administered epicutaneously. The inflammation-inducing agent 9-cis RA is used in a concentration of 0.3%. The RXR antagonist compound 15 is applied in a concentration of 1%. The compounds are solved in ethanol/propylene glycol (1:1) and administered twice daily. The site of application is the abdominal skin, with various areas of 3×3=9 cm^2. Volume per application is 0.1 ml.
The following three clinical settings at different sites are chosen: • 1. Induction of skin inflammation by 9-cis RA 9-cis RA is administered as a 0.3% solution twice daily from day 1 to day 14. The vehicle is administered from day 15 to disappearance of skin inflammation. • 2. Prevention of 9-cis RA-induced skin inflammation by RXR antagonist Compound 15 9-cis RA solution of 0.3% is administered twice daily from day 1 to day 14, each time followed subsequently by application of compound 15 as a 1% solution. • 3. Therapy of 9-cis RA-induced skin inflammation by RXR antagonist compound 15 9-cis RA solution of 0.3% is administered twice daily from day 1 to day 14. Compound 15 as a 1% solution is administered from day 15 until disappearance of skin inflammation.
The signs and symptoms of skin inflammation are recorded on a 0-4 scale, as described in example 21. The evaluation of the anti-inflammatory effect is based on the daily determination of the inflammation score (scale 0-4).
The following parameters serve as criteria for evaluation of the effect of 9-cis RA, the preventive effect of compound 15 and the therapeutic effect of compound 15. • 1. Sum of the daily inflammation scores from day 1 to day 28. Total inflammation score. • 2. Sum of the daily inflammation scores from day 15 to disappearance of skin inflammation. • 3. Time in days from day 15 to disappearance of skin inflammation.

synovial fibroblasts = experiment: In vitro cartilage degradation by synovial fibroblasts (sGAG release); assay type: cell-based, human; settings: for sGAG release: 14 days
Protocol: Furthermore, it is determined whether this is accompanied by a modulation in the accumulation of the mRNA encoding catabolic enzyme matrix metalloproteinase-1 (MMP-1), responsible for degradation of human cartilage and consequently joint destruction in man. Adherent synovial fluid cells taken from a patient with RA are used after 5 passages in an in vitro assay for cartilage destruction. The cells incubated in flasks coated with 0.1% (0.1 g/100 ml) human cartilage powder are fixed using Matrigel® (BD Biosciences, Becton, Dickinson & Co., Boston, Mass., USA). The release of sulphated glycosaminoglycan (sGAG) into the culture medium is monitored by a commercial colorimetric test according to a method described by S. Björnsson, see Anal. […] This is conducted in the presence or absence of IL-1β (100 pg/ml).

[2] = 30 mg/kg/day group versus vehicle group

CC1=C(/C=C/C2=C(/C=C/C(C)=C/C(=O)O)CCCCC2)C(C)(C)CCC1 [Compound 1, (2E,4E)-3-methyl-5-[2-[(E)-2-(2,6,6-trimethyl-1-cyclohexen-1-yl)ethenyl]-1-cyclohepten-1-yl]-2,4-pentadienoic acid]
Glucose Diff. D o − D 12 (db/db mice; 0.3 mg/kg/day i.p.): +57.5% | HDL-cholesterol Diff. D o − D 12 (db/db mice; 0.3 mg/kg/day i.p.): −3.2% | Total cholesterol Diff. D o − D 12 (db/db mice; 0.3 mg/kg/day i.p.): −14.1% | Triglycerides Diff. D o − D 12 (db/db mice; 0.3 mg/kg/day i.p.): +25.4% | Glucose D o (db/db mice; 0.3 mg/kg/day i.p.): 207 mg/dL | HDL-cholesterol D o (db/db mice; 0.3 mg/kg/day i.p.): 3.78 mmol/L | Total cholesterol D o (db/db mice; 0.3 mg/kg/day i.p.): 4.27 mmol/L | Triglycerides D o (db/db mice; 0.3 mg/kg/day i.p.): 1.73 mmol/L | Glucose D 12 (db/db mice; 0.3 mg/kg/day i.p.): 326 mg/dL | HDL-cholesterol D 12 (db/db mice; 0.3 mg/kg/day i.p.): 2.69 mmol/L | Total cholesterol D 12 (db/db mice; 0.3 mg/kg/day i.p.): 3.67 mmol/L | Triglycerides D 12 (db/db mice; 0.3 mg/kg/day i.p.): 2.17 mmol/L | Glucose D-4 (db/db mice; 0.3 mg/kg/day i.p.): 138 mg/dL | HDL-cholesterol D-4 (db/db mice; 0.3 mg/kg/day i.p.): 2.65 mmol/L | Total cholesterol D-4 (db/db mice; 0.3 mg/kg/day i.p.): 4.26 mmol/L | Triglycerides D-4 (db/db mice; 0.3 mg/kg/day i.p.): 1.83 mmol/L | Glucose levels (in words) (db/db mice; 3 mg/kg/day): no significant change | HDL-cholesterol levels (in words) (db/db mice; 3 mg/kg/day): not influenced | Triglyceride levels (in words) (db/db mice; 3 mg/kg/day): hardly influenced | Glucose Diff. D o − D 12 (db/db mice; 3.0 mg/kg/day i.p.): +40.7% | HDL-cholesterol Diff. D o − D 12 (db/db mice; 3.0 mg/kg/day i.p.): −19.6% | Total cholesterol Diff. D o − D 12 (db/db mice; 3.0 mg/kg/day i.p.): −19.9% | Triglycerides Diff. D o − D 12 (db/db mice; 3.0 mg/kg/day i.p.): +15.3% | Glucose D o (db/db mice; 3.0 mg/kg/day i.p.): 194 mg/dL | HDL-cholesterol D o (db/db mice; 3.0 mg/kg/day i.p.): 3.37 mmol/L | Total cholesterol D o (db/db mice; 3.0 mg/kg/day i.p.): 4.68 mmol/L | Triglycerides D o (db/db mice; 3.0 mg/kg/day i.p.): 1.83 mmol/L | Glucose D 12 (db/db mice; 3.0 mg/kg/day i.p.): 273 mg/dL | HDL-cholesterol D 12 (db/db mice; 3.0 mg/kg/day i.p.): 2.71 mmol/L | Total cholesterol D 12 (db/db mice; 3.0 mg/kg/day i.p.): 3.75 mmol/L | Triglycerides D 12 (db/db mice; 3.0 mg/kg/day i.p.): 2.11 mmol/L | Glucose D-4 (db/db mice; 3.0 mg/kg/day i.p.): 155 mg/dL | HDL-cholesterol D-4 (db/db mice; 3.0 mg/kg/day i.p.): 2.53 mmol/L | Total cholesterol D-4 (db/db mice; 3.0 mg/kg/day i.p.): 4.25 mmol/L | Triglycerides D-4 (db/db mice; 3.0 mg/kg/day i.p.): 1.85 mmol/L | Glucose levels (in words) (db/db mice; 30 mg/kg/day): decrease markedly | HDL-cholesterol levels (in words) (db/db mice; 30 mg/kg/day): markedly increased | Total cholesterol levels (in words) (db/db mice; 30 mg/kg/day): slightly higher | Triglyceride levels (in words) (db/db mice; 30 mg/kg/day): decreasing significantly | Overall extent of the effect on blood levels of Glucose (db/db mice; [2]): −62.5% | Overall extent of the effect on blood levels of HDL-cholesterol (db/db mice; [2]): +18.4% | Overall extent of the effect on blood levels of Total cholesterol (db/db mice; [2]): −16.6% | Overall extent of the effect on blood levels of Triglycerides (db/db mice; [2]): −21.5% | Glucose Diff. D o − D 12 (db/db mice; 30 mg/kg/day i.p.): −12.3% | HDL-cholesterol Diff. D o − D 12 (db/db mice; 30 mg/kg/day i.p.): +14.6% | Total cholesterol Diff. D o − D 12 (db/db mice; 30 mg/kg/day i.p.): +7.8% | Triglycerides Diff. D o − D 12 (db/db mice; 30 mg/kg/day i.p.): +0.6% | Glucose D o (db/db mice; 30 mg/kg/day i.p.): 335 mg/dL | HDL-cholesterol D o (db/db mice; 30 mg/kg/day i.p.): 2.94 mmol/L | Total cholesterol D o (db/db mice; 30 mg/kg/day i.p.): 4.21 mmol/L | Triglycerides D o (db/db mice; 30 mg/kg/day i.p.): 1.7 mmol/L | Glucose D 12 (db/db mice; 30 mg/kg/day i.p.): 206 mg/dL | HDL-cholesterol D 12 (db/db mice; 30 mg/kg/day i.p.): 3.37 mmol/L | Total cholesterol D 12 (db/db mice; 30 mg/kg/day i.p.): 4.54 mmol/L | Triglycerides D 12 (db/db mice; 30 mg/kg/day i.p.): 1.71 mmol/L | Glucose D-4 (db/db mice; 30 mg/kg/day i.p.): 174 mg/dL | HDL-cholesterol D-4 (db/db mice; 30 mg/kg/day i.p.): 2.46 mmol/L | Total cholesterol D-4 (db/db mice; 30 mg/kg/day i.p.): 4.37 mmol/L | Triglycerides D-4 (db/db mice; 30 mg/kg/day i.p.): 2.13 mmol/L | Irritation or inflammation of the skin (skin of mice): does not lead to irritation or inflammation of the skin

CC1=C(/C=C/C(C)=C\C=C\C(C)=C\C(=O)O)C(C)(C)CCC1 [9-cis RA, 9-cis retinoic acid, reference compound]
Sum of daily inflammation scores from day 15 to disappearance of inflammation [1]: 14 | Sum of daily inflammation scores, day 1 to day 28. Total inflammation score [1]: 18 | Time in days from day 15 to disappearance of inflammation [1]: 13 days | Effect on cartilage destruction in vitro (in words) (synovial fibroblasts; absence of IL-1β): increases cartilage destruction in vitro in a dose-dependent manner | sGAG release (synovial fibroblasts; absence of IL-1β, 10^−7 M): 189 µg/mL | sGAG release (synovial fibroblasts; absence of IL-1β, 10^−8 M): 107 µg/mL | Cumulative sGAG (synovial fibroblasts; absence of IL-1β, 10^−8 M, day 7): 44 µg/mL | Cumulative sGAG (synovial fibroblasts; absence of IL-1β, 10^−8 M, day 14): 107 µg/mL | Cumulative sGAG (synovial fibroblasts; absence of IL-1β, 10^−8 M, day 21): 206 µg/mL | Cumulative sGAG (synovial fibroblasts; absence of IL-1β, 10^−8 M, day 28): 253 µg/mL | Cumulative sGAG (synovial fibroblasts; absence of IL-1β, 10^−8 M, day 35): 292 µg/mL | sGAG release (synovial fibroblasts; absence of IL-1β, 10^−9 M): 64 µg/mL | sGAG release (synovial fibroblasts; presence of 100 pg/ml IL-1β, 10^−7 M): 221 µg/mL | sGAG release (synovial fibroblasts; presence of 100 pg/ml IL-1β, 10^−8 M): 189 µg/mL | Cumulative sGAG (synovial fibroblasts; presence of 100 pg/ml IL-1β, 10^−8 M, day 7): 68 µg/mL | Cumulative sGAG (synovial fibroblasts; presence of 100 pg/ml IL-1β, 10^−8 M, day 14): 189 µg/mL | Cumulative sGAG (synovial fibroblasts; presence of 100 pg/ml IL-1β, 10^−8 M, day 21): 330 µg/mL | Cumulative sGAG (synovial fibroblasts; presence of 100 pg/ml IL-1β, 10^−8 M, day 28): 407 µg/mL | Cumulative sGAG (synovial fibroblasts; presence of 100 pg/ml IL-1β, 10^−8 M, day 35): 441 µg/mL | sGAG release (synovial fibroblasts; presence of 100 pg/ml IL-1β, 10^−9 M): 204 µg/mL

— patent publication US20080255206A1, “Rxr Agonists and Antagonists, Alone or in Combination with Ppar Ligands, in the Treatment of Metabolic and Cardiovascular Diseases” (priority 2005, published 2008)
